Test results from US20170226507A1, “COORDINATE CONTROL OF PATHOGENIC SIGNALING BY THE MIR-130/301 FAMILY IN PULMONARY HYPERTENSION AND FIBROPROLIFERATIVE DISEASES” (The Brigham and Women's Hospital, Inc., priority 2014, published 2017).
Entries after “also recorded” stand apart in the source; their conditions may differ.

Tests used:
Format in all cases: cell-based, human
miR-130/301 family [1] = assay: RT-qPCR of miR-130/301 family members after transfection of oligonucleotide inhibitors (specificity), PAECs; settings: normoxia and hypoxia
Source text: (§1) FIGS. 14A-14C show the comparison of the specificity of miR-130/301 oligonucleotide inhibitors. (FIG. 14A) Overview of the miRNA silencing approach using seed-targeting tiny locked nucleic acid (LNA) molecules. Tiny LNAs were designed as fully LNA-modified oligonucleotides complementary to the seed region of the miR-130/301 family. The high binding affinity of tiny LNA enables functional inhibition of co-expressed members of miRNA seed families, which leads to de-repression of target mRNAs. Sequences shown in FIG. 14A are miR-130a (SEQ ID NO: 4), miR-130b (SEQ ID NO: 5), miR-301a (SEQ ID NO: 6), miR-301b (SEQ ID NO: 7) and tiny-LNA-130 ([…] SEQ ID NO: 3). […] In the setting of exposure to hypoxia (0.2% O2; 24 h) or normoxia (21% O2; 24 h), expression levels of miR-130/301 family members in PAECs (FIG. 14B) and PASMCs (FIG. 14C) were quantified after transfection with anti-miR-130a versus control (anti-miR-NC) (left panels) or tiny-LNA-130 versus control (tiny-LNA-NC) (right panels). […]
(§2) Cells were homogenized in 2 ml of QiaZol reagent (Qiagen). […] Total RNA concentration was determined using a ND-1000 micro-spectrophotometer (NanoDrop Technologies).
(§3) Mature miRNA expression was evaluated using TaqMan MicroRNA Assays (Life Technologies/Applied Biosystems) and the Applied Biosystems 7900HT Fast Real Time PCR device (Life Technologies/Applied Biosystems). […]

miR-130/301 family [2] = assay: RT-qPCR of miR-130/301 family members after transfection of oligonucleotide inhibitors (specificity), PASMCs; settings: normoxia and hypoxia
Source text: as §1, §2, §3

PAECs = assay: Caspase 3/7 assay, PAECs
Protocol: Caspase 3,7 activity was quantified using the Caspase-Glo 3/7 Assay (Promega), according to manufacturer's instructions. Briefly, cells were plated in triplicate in 96-well plates and transfected with the appropriate oligonucleotide. Forty-eight hours after transfection, cells were cultured in the presence or absence of serum for twenty-four hours. Cells were then incubated for 1 h with the caspase substrates, and luminescence was quantified.

STAT3 = STAT3 phosphorylation in PASMCs (conditioned media from PAECs or endothelin-1; immunoblot); settings: conditioned media from transfected PAECs (mimic: normoxic, tiny-LNA: hypoxic conditioning)
Protocol: (FIG. 40A) A schematic diagram of co-culture experiments: conditioned media from transfected PAECs (miRNA, anti-miRNA, tiny-LNA or siRNA under normoxic or hypoxic conditions) were filtered and applied onto naïve PASMCs cultured in matrigel. At specific times, PASMCs or PASMC-matrigel cultures were arrested and analyzed for STAT3 activation (phosphorylation) or contraction, respectively.
50000 PASMC were embedded in 100 ul of matrix gel as previous described (Gagiolli et al) and plated into well of a 96 well plate. After 1 h at 37° C., these matrices were overlaid with 100 ul of conditioned PAECs serum-free medium (transfected with siRNA, miRNA or anti-miRNA and supplemented with Ambriesentan 10 uM). Every 12 h, medium was changed and at day 4 the gels were photographed and the relative diameter of the well and the gel were measured using ImageJ. The percentage contraction was calculated using the formula 100*(well diameter−gel diamter)/well diameter. For the co-culture experiment, conditioned media from PAEC transfected as indicated were applied on PASMCs or Fibroblast previously starved (24 h). Cells were collected at different time and analyzed by western blotting.
Cells were lysed in RIPA buffer (Santa Cruz Biotechnology) and the protein concentration determined using a Bradford assay (Biorad). Protein lysate ([…]) were resolved by SDS-PAGE and transferred onto a PVDF membrane (Biorad). Membranes were blocked in 5% non-fat milk in TN buffer (50 mM Tris-HCl pH 7.4, 150 mM NaCl) and incubated in the presence of the primary and then secondary antibodies. After washing in TN buffer containing 0.1% Tween, immunoreactive bands were visualized with the ECL system (Amersham Biosciences). […] Primary antibodies for STAT3 (#9139) and P-STAT3 (Tyr-705; #9145) were purchased from Cell Signaling. Primary antibodies against actin (ab 3280), was obtained from Abcam. Appropriate secondary antibodies (anti-rabbit and anti-mouse) coupled to HRP were used (Santa Cruz Biotechnology).

tiny-LNA-130: fully LNA-modified tiny LNA oligonucleotide 5′-ATTGCACT-3′ (SEQ ID NO: 3) complementary to the seed region of the miR-130/301 family (all LNA, backbone and methylation of C not given here)
expression of all miR-130/301 family members (miR-130/301 family [1]): down-regulated; also recorded: effective inhibitors of the entire miR-130/301 family
expression of all miR-130/301 family members (miR-130/301 family [2]): down-regulated; also recorded: effective inhibitors of the entire miR-130/301 family
caspase 3/7 activity (PAECs; 24 h serum deprivation): partially protected cells from caspase 3/7 induction
caspase 3/7 activity (PAECs; serum-replete conditions): No significant modulation
STAT3 phosphorylation in PASMCs (STAT3): abrogated
